The structures appear in SMILES notation.

For data set [1], the target named is T1, PBR protein harvested from MA-10 cells (Mus musculus, UniProt P50637).
T1 construct: PBR protein was harvested from MA-10 cells and stocked in PBS at 10 mg/mL; endogenous in cells; host or cells: MA-10 cells
Put plainly: Competitive binding study against [3H]PK11195 on PBR protein. The conditions noted are these: amino group capped by acetyl group; [3H]PK11195 radioligand; 4° C., 90 minutes. Here is the method:
More specifically, conjugable form of DAA1106, with 3-9 carbon spacers, has been synthesized, characterized, and used in a competitive binding assay. The amino group was capped by acetyl group to reduce non-specific binding (Scheme 2).
PBR protein was harvested from MA-10 cells and stocked in PBS at 10 mg/mL. The stock solution was diluted to 30 μg/100 μL for the binding study. [^3H]PK11195 was used as radioligand and the specific activity of the stock solution was 73.6 Ci/mmole (˜11.8 μM). A diluted solution of 15 nM in PBS was prepared before use. For each of the molecules tested (NIRDAA, LissDAA and C3-9DAA1106 amide), eight concentrations of solutions from 3×10^−4M to 3×10^−11M in PBS buffer were prepared. 30 test tubes were used for the study of each molecule. 3 of them were used for total binding (100 μL 15 nM [^3H]PK11195+100 μL PBS buffer+100 μL 30 μg/100 μL PBR protein), 3 test tubes were for non-specific binding (100 μL 15 nM [^3H]PK11195+100 μL 15 μM PK11195+100 μL 30 μg/100 μL PBR protein) and the other 24 were triplicates for each doses of competitor ligand (100 μL, 15 nM [^3H]PK11195+100 μL competitor solution+100 μL 30 μg/100 μL PBR protein). All test tubes were vortexed and then incubated at 4° C. for 90 minutes. Reactions were stopped by filtration on FG/B filters using the Brandel binding apparatus through Whatman GF/B filters (Brandel, Gaithersburg, Md.). The filters (24 positions each) were preincubated in PBS/H2O containing 0.05% PEI for 20-30 minutes before filtration. The filters were then washed 5 times with PBS, put in scintillation vials, vortexed in scintillation fluid and counted. The […] and Ki (equilibrium dissociation constant) values were calculated using the PRISM program package

For data set [2], the system named is MDA-MB-231 human breast tumor (high PBR expressing) cells. Put plainly: Apoptosis study, CellTiter-Glo luminescent cell viability assay. The class given is cell-based. The conditions noted are these: MDA-MB-231, three days. Here is the method: (§1) Apoptosis Study Using Etoposide and EtoposideDAA 50,000 MDA-MB-231 human breast tumor (high PBR expressing) or human Jurkat T lymphocyte cells (low PBR expressing) cells/well were added to 96 well plates and incubated under standard tissue culture conditions (37° C., 5% CO2) for 24 hours. […] After three days, CellTiter-Glo luminescent cell viability assay (Promega) was added. The plates were incubated for an additional one hour and the […] was counted under Xenogen IVIS imaging system. Three wells were used for control which had cells treated with viability assay without drug. Blank […] not have cells or drug, but had viability assay. Medium samples had cells only, without drug or viability assay.
On the technique in general: Cellular ATP, detected with luciferase, serves as a proxy for viable cell number.

For data set [3], the system named is human Jurkat T lymphocyte cells (low PBR expressing). The data set is described as above. The format is cell-based. Here is the method: as §1
Data set [4] has as its system PBR. The note with it: cited from earlier work; for IC50: comparison values for parent ligand.
The subject of data set [5] is PBR. The note with it: cited from earlier work.

The IC50 is the concentration at which inhibition is half-maximal. Usually Ki stands for the equilibrium dissociation constant of an inhibitor or competing ligand from its target. The low end stands for tighter binding, the high end for weaker binding. `COc1ccc(NCCCCCCCCNC(C)=O)c(CN(C(C)=O)c2cc(F)ccc2Oc2ccccc2)c1` [C8DAA1106]: in data set [1], the half-inhibitory concentration (IC50) was found to be 240 nM and the affinity corresponds to a Ki of 43 ± 19 nM.
For `COc1cc([C@@H]2c3cc4c(cc3[C@@H](O[C@@H]3O[C@@H]5CO[C@@H](C)O[C@H]5[C@H](O)[C@H]3O)[C@H]3COC(=O)[C@H]23)OCO4)cc(OC)c1O` [etoposide, reference compound], in data set [2], the “concentration at which cells were beginning to respond” value is listed as 10^−4 M. In data set [3] (Jurkat, three days), the “concentration at which cells began to respond” value is listed as 10^−6 M and the “concentration at which cells effectively respond” value is reported as 10^−5 M.
Take `COc1ccc(NCCCCNC(C)=O)c(CN(C(C)=O)c2cc(F)ccc2Oc2ccccc2)c1` [C4DAA1106]: in data set [1], the IC50 was found to be 800 nM and the inhibition constant Ki was 141 ± 36 nM.
The like results for `COc1ccc(NCCCNC(C)=O)c(CN(C(C)=O)c2cc(F)ccc2Oc2ccccc2)c1` [C3DAA1106] were, in that order, 390 nM and 68 ± 23 nM.
Consider `COc1ccc(OC)c(CN(C(C)=O)c2cc(F)ccc2Oc2ccccc2)c1` [DAA1106], for which, in the data set on PBR [4], the IC50 is 0.28 nM. In the data set with PBR [4] (fentomolar), the “binding affinity for PBR” value is 10^−15 M. Further, the “concentration to displace PBR complexed PK11195 and Ro5-4864” value with PBR [5] was 10^−15-10^−12 M.
On to `COc1ccc(NCCCCCNC(C)=O)c(CN(C(C)=O)c2cc(F)ccc2Oc2ccccc2)c1` [C5DAA1106], for which, in data set [1], the concentration for half-maximal inhibition (IC50) amounted to 840 nM and the Ki is 149 ± 49 nM.
The like results for `COc1ccc(NCCCCCCCNC(C)=O)c(CN(C(C)=O)c2cc(F)ccc2Oc2ccccc2)c1` [C7DAA1106] were, in that order, 400 nM and 71 ± 33 nM.
In data set [1], `COc1ccc(NCCCCCCCCCNC(C)=O)c(CN(C(C)=O)c2cc(F)ccc2Oc2ccccc2)c1` [C9DAA1106] registered a half-maximal inhibitory concentration (IC50) of 290 nM and a Ki of 51 ± 17 nM.
Take `COc1ccc(NCCCCCCNC(=O)CCOc2c(OC)cc([C@@H]3c4cc5c(cc4[C@@H](OC4OC6COC(C)OC6C(O)C4O)[C@H]4COC(=O)[C@H]34)OCO5)cc2OC)c(CN(C(C)=O)c2cc(F)ccc2Oc2ccccc2)c1` (stereo partly drawn) [etoposide-C6DAA1106]: the “concentration at which cells were beginning to respond” value in data set [2] is recorded as 10^−4 M. Besides, the “toxicity to normal cells compared with etoposide” value in data set [3] (Jurkat (low PBR expressing)) is recorded as “less toxicity to normal cells than etoposide”. For the same compound, the “concentration at which cells effectively respond” value in data set [3] (Jurkat, three days) is recorded as 10^−4 M.
As to `COc1ccc(OC)c(CN(C(C)=O)c2cc(F)ccc2Oc2ccccc2)c1` [[^11C]DAA1106], the half-maximal inhibitory concentration (IC50) with PBR [4] was 0.91 nM.
In data set [1], `COc1ccc(NCCCCCCNC(C)=O)c(CN(C(C)=O)c2cc(F)ccc2Oc2ccccc2)c1` [C6DAA1106] returned an IC50 of 350 ± 220 nM and a Ki of 52 ± 30 nM.

These data come from US20100324130A1, “DAA PERIPHERAL BENZODIAZEPINE RECEPTOR LIGAND FOR CANCER IMAGING AND TREATMENT” (priority 2006, published 2010).
